system: increase in uterus weight by stimulus with estradiol; test: Anti-estrogenic activity via oral administration (inhibition of estradiol-stimulated increase in uterus weight in ovariectomized mice); format: in vivo; conditions: ovariectomized ICR mice, 17β-estradiol-benzoate 0.1 μg/day s.c. for 3 days, test compound 10 mg/kg p.o., once a day, uterus weighed 24 hours after last administration
Method: Oral anti-estrogenic activity in vivo of the test compound was determined according to the method described hereinafter. […] In this experiment, the test compounds and the control compound were suspended in 5% arabic gum solution and orally administered for 3 days, once a day. After 24 hours from the last administration, the test animal was sacrificed and uterus was removed and weighed.

Row | Structure (SMILES) | Inhibition (%) of the increase in uterus weight by estradiol
1 | C[C@]1(c2ccc(O)cc2)CSc2cc(O)ccc2[C@H]1CCCCCCCCC(CCCCCCC(F)(F)C(F)(F)F)C(=O)O (stereo partly drawn) [Example 1, (3′RS,4′RS)-10-[7-hydroxy-3-(4-hydroxyphenyl)-3-methylthiochroman-4-yl]-2-(7,7,8,8,8-pentafluorooctyl)decanoic acid] | 78.9%
2 | C[C@]1(c2ccc(O)cc2)CSc2cc(O)ccc2[C@H]1CCCCCCCCCC(CCCCCCC(F)(F)C(F)(F)F)C(=O)O (stereo partly drawn) [Example 2, (3′RS,4′RS)-11-[7-hydroxy-3-(4-hydroxyphenyl)-3-methylthiochroman-4-yl]-2-(7,7,8,8,8-pentafluorooctyl)undecanoic acid] | 62.0%
3 | C[C@]1(c2ccc(O)cc2)COc2cc(O)ccc2[C@H]1CCCCCCCCCC(CCCCCCC(F)(F)C(F)(F)F)C(=O)O (stereo partly drawn) [Example 3, (3′RS,4′RS)-11-[7-hydroxy-3-(4-hydroxyphenyl)-3-methylchroman-4-yl]-2-(7,7,8,8,8-pentafluorooctyl)undecanoic acid] | 85.1%
4 | C[C@]1(c2ccc(O)cc2)COc2cc(O)ccc2[C@H]1CCCCCCCCC(CCCCCCC(F)(F)C(F)(F)F)C(=O)O (stereo partly drawn) [Example 4, (3′RS,4′RS)-10-[7-hydroxy-3-(4-hydroxyphenyl)-3-methylchroman-4-yl]-2-(7,7,8,8,8-pentafluorooctyl)decanoic acid] | 71.4%
5 | C[C@]1(c2ccc(O)cc2)CCc2cc(O)ccc2C1CCCCCCCCC[S+]([O-])CCCC(F)(F)C(F)(F)F (some centres unmarked) [ZM189154, reference compound] | 41.7%
